Reference: patent publication US8865672B2, “Prevention of tissue ischemia and related methods” (The United States of America, as represented by the …, priority 2006, dated 2014)
Peptide text beside a SMILES is read from it. * marks the point of attachment. Biotin = O=C1N[C@H]2[C@H](CS[C@H]2CCCCC(=O)*)N1

Columns and labels:
[1] = system: endothelial cells and platelets; test: NO-stimulated cGMP flux in endothelial cells and platelets (Example 9); format: cell-based, human; conditions: 10 μM DEA/NO
Experimental: (§1) Vascular cells (endothelial) or HT-1080 cells (10^4 cells/well) grown overnight in 12-well culture in SM-GM containing 2% FCS or RPMI+10% FCS respectively and then weaned off serum over 48 h before treatment with NO donors and other agents in serum/additive free medium+0.1% BSA. Intracellular cGMP levels were determined using an enzyme immunoassay (Amersham, GE Health Care, UK). In other experiments fresh washed human platelets were incubated in Tyrode's buffer and the indicated treatment agents±NO and cGMP determined.
Endothelial cells (FIG. 62C) and platelets (FIG. 62D) in basal medium without serum or Tyrode's buffer respectively were treated with the indicated peptides±NO (10 μM DEA/NO) and cGMP levels determined.

[2] = system: VSMC and endothelial cells; test: NO-stimulated adhesion of VSMC and endothelial cells to type I collagen (Example 9); format: cell-based; conditions: 10 μM DEA/NO
Experimental: Vascular cells (VSMC or endothelial) were plated at 10,000 cells/well onto 96-well plates (Maxisorb, Nunc) precoated with type I collagen (3 μg/ml). […] Plates were then washed with PBS, fixed with glutaraldehyde, stained with crystal violet, and washed. Absorbed stain was solubilized with acetic acid from fixed cells and the resulting color signal determined on a MR580Microelisa Auto Reader, (Dynatech, Alexandria, Va.) at 450 nm wavelength.

NO/cGMP signaling = test: cGMP signaling (NO-stimulated cGMP, immunoassay); format: cell-based, human; conditions: concentration for 50% inhibition of effect
Experimental: as §1

Rap1 = Rap1 pulldown assay in platelets; format: cell-based, human; conditions: thrombin
Experimental: Platelets were diluted to 5×10^8 platelets/mL in Tyrode's buffer and treated with various reagents for the indicated times. Immediately following treatment, platelets were pelleted at 13,000 g for 30 seconds at 4° C. and resuspended in ice-cold lysis buffer containing 20 mM HEPES (pH 7.5), 100 mM NaCl, 10 mM EGTA, 20 mM MgCl2, 8 mM α-glycerophosphate, 1% Triton X-100, 1 mM phenylmethylsulfonylfluoride, 40 mM NaF, 1 mM Na3VO4, 10 μg/mL aprotinin, and 10 μg/mL leupeptin. Lysates were centrifuged at 13,000 g for 5 minutes at 4° C. and the supernatants were incubated for 15 minutes on a tumbler at 4° C. with glutathione Sepharose 4B beads (Amersham) prebound with a GST-Ral GDS RBD fusion protein (kind gift of J. Silvio Gutkind, NIH, Bethesda, Md.). Bead complexes were washed by centrifugation at 6,000 g for 30 seconds at 4° C. followed by resuspension in 0.5 mL lysis buffer; 2 washes were performed for each sample. After the second wash, beads were resuspended in an equal volume of 2×SDS sample buffer and stored at −20° C. For Western analysis, bead-bound proteins in sample buffer were boiled for 10 minutes and subjected to electrophoresis on NuPAGE 10% Bis-Tris gels (Invitrogen, Carlsbad, Calif.), transferred to Immobilon-P PVDF membranes (Millipore, Billerica, Mass.), and blotted with rabbit polyclonal anti-Rapt (sc-65; Santa Cruz Biotechnology, Santa Cruz, Calif.).

VASP = test: Phospho-Ser239 VASP Western blotting in platelets; format: cell-based, human; conditions: 8Br-cGMP 100 μM, TSP1 2.2 nM
Experimental: Washed human platelets (resuspended in Tyrode's buffer to 3×10^8 platelets/mL to a final volume of 0.5 mL) were incubated at 37° C. for 30 minutes before treatment. TSP1 was added 15 minutes prior to treatment. Immediately following treatment, platelets were pelleted at 13,000×g at 4° C. for 15 seconds and resuspended in 1 mL of a lysis buffer containing 10 mM Tris-HCl (pH 7.5), 150 mM NaCl, 1 mM EDTA, 1 mM Na3VO4, 40 mM NaF, 1 μg/mL aprotinin, 1 μg/mL leupeptin, 1 mM phenylmethysulfonylfluoride and 1% […]. This suspension was placed at 4° C. with gentle agitation for 5 minutes before centrifugation at 13000×g for 5 minutes at 4° C. 5 μg lysates were electrophoresed on 4-12% Bis-Tris NuPAGE gels, transferred to Immobilon PVDF membranes and probed with a rabbit polyclonal antiserum against Serine 239-phosphorylated VASP (Santa Cruz Biotechnology, Santa Cruz, Calif.).

[3] = system: murine WT and TSP1-null platelets; test: Thrombin-induced murine platelet aggregation; format: cell-based, mouse; conditions: high shear
Experimental: Aggregation of human platelets under high shear conditions was assessed using a standard optical aggregometer (Lumi-Dual Aggregometer, Chrono-Log Corp., Havertown, Pa.) at 37° C. and 1200 rpm in a volume of 500 μl buffer with a final platelet concentration of 2×10^5 platelets/μl over a 5 minute interval. Pre-incubation with TSP1 and TSP1-based agents was for 15 minutes prior to addition of thrombin and/or the rapidly releasing nitric oxide donor DEA/NO. In some experiments platelets were pre-incubated with the Rap1 inhibitor GGTI-298 (10 μM) (Calbiochem, La Jolla, Calif.) for 30 minutes prior to initiating aggregation. In other high shear aggregation experiments murine platelets were prepared as above with the following modifications. Mouse blood was collected by retro-orbital bleeding of anesthetized mice using heparinized tubes. PRP was prepared and then diluted with 4 vol. of Tyrodes containing 5 mM EDTA to prevent activation. After collection by centrifugation, platelets were resuspended in 2× initial PRP volume and held at room temperature for less than 1 hour before use. […] Platelet aggregation under static conditions was assessed using a spectrophotometer (Beckman DU 640, Beckman Coulter, Fullerton, Calif.) and determined as a change in absorbance at 400 nm with continuous observation over a five minute interval. […]

human platelets = test: Thrombin-induced human platelet aggregation; format: cell-based; conditions: low shear, peptide 1 μM, 10 μM DEA/NO
How it was run: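 Washed human platelets in Tyrode's buffer pH 7.4 (2×10^5/μl) are stirred at 1200 rpm and 37 °C, and optical aggregation is followed for 5 min; under static conditions, A400 is tracked for 5 min instead. TSP1 agents or 1 μM peptide C6d are pre-incubated for 15 min before thrombin ± DEA/NO (10 μM).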

HASMC [4] = test: Intracellular cGMP in HASMC; format: cell-based, human; conditions: DEA/NO 10 μM, 5 minutes
HUVEC = test: Intracellular cGMP in HUVEC; format: cell-based, human; conditions: DEA/NO 10 μM
Experimental: HUVEC (10^4 cells/well) grown overnight in 96-well culture plates containing full growth medium with 2% FCS and weaned in growth medium without additives and 1% FCS over 24 hrs before treatment with NO donors and other agents in SM-GM without additives+0.1% BSA. Intracellular cGMP levels were determined according to the manufacturer's instructions using an enzyme immunoassay kit (Amersham Biosciences). In other experiments ASMC from wild type and CD36 or CD47 null mice were plated onto 96-well culture plates and incubated overnight in full growth medium. They were then weaned off serum as described to SM-GM+0.1% BSA and treated with NO donor and other agents as indicated. Intracellular cyclic nucleotides were determined via immunoassay.

HASMC [5] = test: NO-stimulated HASMC adhesion on type I collagen; format: cell-based, human; conditions: DEA/NO 10 μM
Experimental: Cell adhesion was carried out in 96-well culture plates. After pre-coating wells with type I collagen (3 μg/ml in DPBS) harvested cells were plated at a density of 1×10^4 cells/well in medium plus 0.1% BSA and treatment agents and incubated in 5% CO2 for 1 h. Wells were washed with PBS and cells fixed with 1% glutaraldehyde for 10 min., washed and stained with 1% crystal violet for 20 min. Excess stain was rinsed away, adherent cells treated with 10% acetic acid, and plates read at 570 nm.

[6] = molecular target: T1, CD47 IgV domain / SIRP IgV domain (Homo sapiens, UniProt Q08722); test: ELISA of SIRP IgV domain binding to CD47 IgV domain; conditions: Fc-SIRP IgV on protein A plates, alkaline phosphatase-CD47 IgV
T1 construct: alkaline phosphatase fusions of the CD47 IgV domain
T1 sequence (Q08722 19-127 limits assumed): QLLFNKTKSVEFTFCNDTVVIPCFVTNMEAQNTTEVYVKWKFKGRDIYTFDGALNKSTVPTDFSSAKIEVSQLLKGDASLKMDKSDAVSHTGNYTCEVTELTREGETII
Source text: SIRP-alpha (Signal Inhibitory Regulatory Protein Alpha; SIRPα) and the closely related SIRP-gamma (SIRPγ formerly called SIRP-beta) are two ligands of CD47. They consist of an N-terminal IgV set domain and variable numbers of 1 g domains followed by a transmembrane segment and variously spliced cytoplasmic tails, some of which contain phosphorylatable tyrosines that constitute docking sites for tyrosine phosphatases such as SHP-1 and SHP-2. The IgV domain of SIRP-alpha and -gamma are high affinity ligands of CD47 with species specificity thought to allow self vs. non-self discrimination by phagocytes. The binding of the IgV domain of SIRPα to the IgV domain of CD47 can be measured in a simple ELISA assay using recombinant versions of each protein. For this purpose we have employed Fc-fusions of SIRP IgV domain and alkaline phosphatase fusions of the CD47 IgV domain. The Fc-IgV protein is adsorbed to well plates coated with protein A to which the Fc binds. Potential inhibitors are added and the binding of alkaline phosphatase-conjugated CD47 IgV domain is measured by routine procedures.

[7] = system: murine WT and TSP1-null platelets; test: cGMP in murine platelets; format: cell-based, mouse; conditions: 100 μM added to Tyrode's
Experimental: After induction of general anesthesia with isoflurane 2%, age and sex matched C57BL/6 WT and TSP1-null mice underwent cardiac puncture. Blood was aspirated into 1 cc syringes with a 25 gauge needle containing 100 μl heparin (Heparin Lock Flush, Abbott, Chicago, Ill.), mixed with 100 μl 3% ACD and centrifuged in 1.2 ml S-Monovette separation tubes (Sarstedt, Germany). PRP was aspirated off, centrifuged, and the resulting platelet pellet was resuspended in 200 μl of Tyrode's buffer.
Fresh human platelets at 2×10^5 platelets/μl in Tyrode's buffer or PRP were pre-incubated with the indicated agents for 15 minutes and then challenged with DEA/NO for the indicated time interval at room temperature and total cGMP determined via immunoassay (Amersham, GE Healthcare, Buckinghamshire, UK). Murine WT and TSP1-null platelets were treated with DEA/NO and cGMP flux measured.

`CC[C@H](C)[C@H](NC(=O)[C@@H](N)Cc1c[nH]cn1)C(=O)NCC(=O)N[C@@H](Cc1c[nH]c2ccccc12)C(=O)N[C@@H](CCCCN)C(=O)N[C@@H](CC(=O)O)C(=O)N[C@@H](Cc1ccccc1)C(=O)N[C@H](C(=O)N[C@@H](C)C(=O)N[C@@H](Cc1ccc(O)cc1)C(=O)N[C@@H](CCCNC(=N)N)C(=O)N[C@@H](Cc1c[nH]c2ccccc12)C(=O)N[C@@H](CCCNC(=N)N)C(=O)N[C@@H](CC(C)C)C(=O)N[C@@H](CO)C(=O)O)[C@@H](C)O` [C6b, HIGWKDFTAYRWRLS] (H-HIGWKDFTAYRWRLS-OH) was tested, and the “NO-stimulated cGMP flux” value [1] was “Blocked”, the “NO-stimulated adhesion to type I collagen” value [2] was “blocked in a dose-dependent manner” and the IC50 (NO/cGMP signaling) was about 100 nM.
`Nc1nc2c(nc(Br)n2[C@@H]2O[C@@H]3COP(=O)(O)O[C@H]3[C@H]2O)c(=O)[nH]1` [8Br-cGMP, 8-Bromo cyclic guanine monophosphate, reference compound] was tested, and the “Rap1 activation (GTP loading)” value (Rap1) was “inhibited this activation”, the “VASP phosphorylation at Ser239” value (VASP) was “stimulates VASP phosphorylation at Ser239” and the thrombin-induced aggregation ([3]; TSP1-null platelets) was “rendered TSP1-null platelets resistant to thrombin-induced aggregation”. For the same compound, the thrombin-induced aggregation ([3]; WT murine platelets) was “substantially inhibited aggregation of WT murine platelets”.
For `CC[C@H](C)[C@H](NC(=O)CCCC[C@@H]1SC[C@@H]2NC(=O)N[C@@H]21)C(=O)NCC(=O)N[C@@H](Cc1c[nH]c2ccccc12)C(=O)N[C@@H](CCCCN)C(=O)N[C@@H](CC(=O)O)C(=O)N[C@@H](Cc1ccccc1)C(=O)N[C@H](C(=O)N[C@@H](C)C(=O)N[C@@H](Cc1ccc(O)cc1)C(=O)N[C@@H](CCCNC(=N)N)C(=O)O)[C@@H](C)O` [C6d, biotin-IGWKDFTAYR] (Biotin-IGWKDFTAYR-OH), the “NO-stimulated cGMP flux” value [1] was “Blocked”, the “NO-stimulated adhesion to type I collagen” value [2] was “blocked in a dose-dependent manner” and the “NO delay of thrombin-stimulated aggregation” value (human platelets) was “completely reversed”. For the same compound, the IC50 (NO/cGMP signaling) was about 100 nM.
In the case of “E3CaG1: recombinant C-terminal regions of TSP1”, the “NO-stimulated cGMP levels in HASMC” value (HASMC [4]) is reported as “equipotent dose-dependent inhibitors”, the “NO-driven cGMP production” value (HUVEC) is reported as “potently inhibited” and the “concentration that inhibited NO-driven HASMC adhesion to collagen” value (HASMC [5]) is reported as over 0.4 nM.
For `CC[C@H](C)[C@H](N)C(=O)NCC(=O)N[C@@H](Cc1c[nH]c2ccccc12)C(=O)N[C@@H](CCCCN)C(=O)N[C@@H](CC(=O)O)C(=O)N[C@@H](Cc1ccc(O)cc1)C(=O)N[C@H](C(=O)N[C@@H](C)C(=O)N[C@@H](Cc1ccc(O)cc1)C(=O)N[C@@H](CCCNC(=N)N)C(=O)O)[C@@H](C)O` [compound 37298, IGWKDYTAYR] (H-IGWKDYTAYR-OH), the “inhibition of binding of the SIRP IgV domain to CD47” value [6] was “can inhibit the binding” and the IC50 (NO/cGMP signaling) was about 100 nM.
In the case of `N=C(N)NCCC[C@H](N)C(=O)O` [L-arginine, reference compound], the “platelet cGMP levels” value [7] is reported as “elevated cGMP levels in TSP1-null but not in WT platelets”.
